Results published in patent publication US20180200223A1, “APPLICATION OF NARINGENIN AND NARINGIN IN TUMOR RADIOTHERAPY” (INSTITUTE OF BIOPHYSICS CHINESE ACADEMY OF SCIENCES, priority 2015, published 2018).

Columns and labels:
[1] = system: 4T1 breast tumor with lung metastasis; assay: 4T1 breast tumor lung metastasis mice with lung irradiation: lung injury, nodules, cytokines; assay type: in vivo, Balb/C mice
Protocol: (1) Resuscitation and culture of 4T1 cells: Cell culture hood need to be sterilized by UV for 30 min before resuscitating the 4T1 cells. Equilibrate the RPMI 1640 culture medium (containing 10% fetal bovine serum) to room temperature for further application. The cryovial containing tumor cells are taken from liquid nitrogen storage and immediately put into a 37° C. water bath, shaking quickly until the cells are completely dissolved. Transfer the cells into a cell culture flask with 10-15 ml medium to suspend the sedimentary cells. After adjusting the concentration of the cells, culture the cells in an incubator with a saturated humidified atmosphere containing 5% (v/v) CO2 at 37° C. Replace fresh medium every day during. Digest the cells by 0.25% trypsin when the convergence of the cells reaches 90%, and then subculture the cells at a ratio of 1:3. On the day of experiment, we collect the cells by digesting the cells with 0.25% trypsin, then neutralize the trypsin with RPMI 1640 with 10% fetal bovine serum. Centrifuge the cells at 800 rpm, and then resuspend the cells in sterile PBS. After counting the density of cells, adjust the cells to 1×10^5/ml for tumor cells inoculation. (2) 4T1 cells are mixed well before inoculation. Pipet 0.3 ml of cells by a 1 ml sterile syringe, and inject 0.1 ml of cells per mouse (namely 1×10^4 4 T1 cells per mouse). (1) 4T1 murine breast tumor cell line was used to inoculate the tail vein of Balb/C mice to form lung metastatic tumors. 1×10^4 4 T1 cells were intravenously injected into the tail vein per mouse, and 10-15 days later nodules would develop in lung. (2) Set the day of inoculation as day 0. 200 mg/kg naringenin (Nar) (suspended in 1% CMC-Na) was administered orally to the mice at day 12 day after inoculation, namely 3 days before irradiation on the lungs. The mice received a 12 Gy of γ-ray irradiation once at day 14 after inoculation and keep naringenin administration. A part of the mice in each group were sacrificed at day 28 after inoculation and the blood, lung tissues were collected while the lungs were weighed. The tumor nodules in the lungs were observed under the condition of without destroying the integrity of lung tissues. Serum were separated and assayed for cytokines such as IL-6, IL-113, IFN-γ, etc. The lung tissues collected at day 28 after inoculation were used for biopsy and the observation of lung injury as well as inflammatory cells infiltration. The rest animals were used for survival observation. The mice in this experiment are separated into 4 groups as follows: • 1) Normal control group (Normal) • 2) 4T1 tumor-bearing mice without irradiation group (4T1) • 3) 4T1 tumor-bearing mice receiving lung irradiation without naringenin administration group (4T1+IR) • 4) 4T1 tumor-bearing mice receiving lung irradiation with naringenin administration group (4T1+IR+Nar) 3 groups of mice were inoculated with 4T1 tumor cells. Each group contains 12 mice with half male and half female which were fed in separate cages, and each cage contains 6 mice.

[2] = system: 4T1 breast tumor with lung metastasis; assay: Survival of mice bearing 4T1 breast tumor with lung metastasis after radiotherapy; assay type: in vivo, Balb/c mice
Protocol: (1) Resuscitation and culture of 4T1 cells: Cell culture hood need to be sterilized by UV for 30 min before resuscitating the 4T1 cells. Equilibrate the RPMI 1640 culture medium (containing 10% fetal bovine serum) to room temperature for further application. The cryovial containing tumor cells are taken from liquid nitrogen storage and immediately put into a 37° C. water bath, shaking quickly until the cells are completely dissolved. Transfer the cells into a cell culture flask with 10-15 ml medium to suspend the sedimentary cells. After adjusting the concentration of the cells, culture the cells in an incubator with a saturated humidified atmosphere containing 5% (v/v) CO2 at 37° C. Replace fresh medium every day during. Digest the cells by 0.25% trypsin when the convergence of the cells reaches 90%, and then subculture the cells at a ratio of 1:3. On the day of experiment, we collect the cells by digesting the cells with 0.25% trypsin, then neutralize the trypsin with RPMI 1640 with 10% fetal bovine serum. Centrifuge the cells at 800 rpm, and then resuspend the cells in sterile PBS. After counting the density of cells, adjust the cells to 1×10^5/ml for tumor cells inoculation. (2) 4T1 cells are mixed well before inoculation. Pipet 0.3 ml of cells by a 1 ml sterile syringe, and inject 0.1 ml of cells per mouse (namely 1×10^4 4 T1 cells per mouse). (1) 4T1 murine breast tumor cell line was intravenously injected to form lung metastatic tumors in Balb/c mice. Lung metastatic nodules would develop about 10-15 days after 1×10^4 4 T1 cells were inoculated. (2) Set the day of inoculation as day 0, at day 12 after inoculation, different doses of naringenin (Nar), namely 50, 100 and 200 mg/kg (suspended in 1% CMC-Na), were administered orally. The mice received γ-ray irradiation (8 Gy×2 f) at day 14 and day 15 after inoculation. […] The administration of either naringenin or dexamethasone plus cefixime continued until the mice started to die, and the survivals were observed and recorded. […]

[3] = system: LLC lung tumor; assay: LLC lung tumor bearing mice with lung irradiation; assay type: in vivo, C57B6/L mice
Source text: (1) LLC murine lung cancer cell line was used to intravenously inoculate the C57B6/L mice to form lung metastatic tumors. About 24 days after 5×10^5 LLC cells were inoculated, nodules in the lung would develop. (2) The mice were divided into 4 groups, and each group contains 10 mice. The grouping methods are as followed: 1) Normal control group (Normal); 2) LLC tumor-bearing mice without irradiation group (LLC); 3) LLC tumor-bearing mice receiving lung irradiation without naringenin administration group (LLC+IR); 4) LLC tumor-bearing mice receiving lung irradiation with naringenin (Nar) administration group (LLC+IR+Nar); Set the day of inoculation as day 0. (6) 100 mg/kg naringenin (Nar) (suspended in 1% CMC-Na) was administered orally to each of the mice in LLC+IR+Nar group at day 12 after inoculation (namely 3 days before lung irradiation); (7) The mice received γ-ray irradiation with a dose of 12 Gy per mouse per time at day 14 after inoculation; (8) Continue to orally administrate 100 mg/kg naringenin (Nar) (suspended in 1% CMC-Na) to each of the mice in LLC+IR+Nar group at day 15 day after inoculation (namely 1 day after lung irradiation); (9) At day 21 after inoculation, 5 animals in each group were randomly selected for sample collection. After dissection, the blood and lung tissues were collected, and the lungs were weighed. Then the number of tumor nodules in the lungs were counted without destroying the complete structure of lung tissues. (10) At day 37 after inoculation, the remaining animals in each group were sacrificed and dissected. The blood and lung tissues were collected, and the lungs were weighed. Then the number of tumor nodules in the lungs were counted without destroying the complete structure of lung tissues. Serum was separated and assayed for inflammatory cytokines such as IL-6, IL-113, IFN-γ, etc. The lung tissues were used for biopsy and the observation of lung injury and inflammatory cells infiltration. […]

[4] = system: inflammatory cytokine IL-1β; assay: DNA fragment-induced IL-1β release from primary peritoneal macrophages (ELISA); assay type: cell-based, mouse; conditions: 100 μM pretreatment 2 h, DNA fragments 100 ng/mL 24 h, supernatant ELISA
Protocol: 4% Brewer thioglycollate medium (1.5 ml/mouse) was intraperitoneally injected. Four days later, washing the abdominal cavity of these mice with serum-free medium (DMEM) (10 ml/mouse). The lavage fluids were collected and centrifuged at 1300 rpm for 5 minutes. The cell pellet was resuspended and seeded into a 24-well plate at the concentration of 2×10^6 cells/well. Two hours later, the non-adherent cells were carefully removed and the remaining adherent cells are primary peritoneal macrophages. Identification: Macrophage surface marker F4/80 was detected by flow cytometry using PE-labelled anti-F4/80 antibody (ebioscience). […] Sample treatment: The macrophages were pretreated with 100 μM naringenin (Nar) for 2 h, and then were stimulated with DNA fragments (100 ng/mL) for 24h. The supernatants were collected and the concentration of inflammatory cytokine IL-1β (pg/mL) in the supernatant was measured by ELISA.

[5] = Total antioxidant capacity (FRAP method); conditions: 27 μM, absorbance 593 nm
Protocol: The total antioxidant capacity of several flavonoids was detected by the total antioxidant capacity test kit (FRAP method). The principle of the FRAP method is that the antioxidant can reduce ferric-tripyridyltriazine (Fe^3+-TPTZ) to produce a blue Fe^2+-TPTZ under an acidic condition. Measuring the blue Fe^2+-TPTZ at a wavelength of 593 nm to access the antioxidant capacity of the sample. Since the reaction is carried out under an acidic condition, some of the endogenous interference factors can be excluded. (1) Prepare proper amount of FRAP working solution according to the samples numbers referring to the following table. The FRAP working solution was incubated at 37° C. and used no longer than 1-2 hours. Prepare 10 species of flavonoids: quercetin (Que), daidzein (Dai), kaempferol (Kae), apigenin (Api), naringenin (Nar), genistein (Gen), hesperidin (Her), luteolin (Lut), chrysin (Chr) and nobiletin (Nob). Make the final concentration of each flavonoid to 27 μM. Dissolve 27.8 mg of FeSO4.7H2O provided by this kit and dilute to 1 ml to make the concentration to 100 mM. Take an appropriate amount of FeSO4 solution and dilute it to 0.15, 0.3, 0.6, 1.2 and 1.5 mM, respectively. Distilled water or sample preparation solution was used for the preparation of the standards. […] (3) Incubate the plate at 37° C. for 3-5 min, and then determine the absorbance at 593 nm. […]

[6] = 200 mg/kg oral, 12 Gy γ-ray, compared to 4T1+IR group

## O=C1C[C@@H](c2ccc(O)cc2)Oc2cc(O)cc(O)c21 [naringenin]
[1]; 200 mg/kg oral from day 12, 12 Gy γ-ray at day 14, day 28, compared to 4T1 group and 4T1+IR group
  number of tumor nodules in lungs: decreased
[1]; 200 mg/kg oral, 12 Gy γ-ray, day 28, 4T1+IR+Nar vs 4T1+IR
  lung injury and fibrosis (pathological analysis): markedly alleviated
[1]; [6]
  serum level of IFN-γ: significantly changed
  serum level of IL-1β: significantly changed
  serum level of IL-6: significantly changed
[2]; 100 mg/kg oral vs dexamethasone 0.25 mg/kg plus cefixime 200 mg/kg
  survival of tumor-bearing mice compared with positive drugs (DXM+CXL): improvement in the survival
[2]; 100 mg/kg oral, compared among the 3 doses
  sensitizing/synergizing effect combined with radiotherapy (survival): highest sensitizing/synergizing effect
[2]; 50, 100 and 200 mg/kg oral, γ-ray 8 Gy×2 f, compared with 4T1+IR group
  survival of tumor-bearing mice: significantly prolonged
[3]; 100 mg/kg oral, 12 Gy γ-ray at day 14, compared to LLC and LLC+IR group
  number of tumor nodules in lungs: significantly decreased
[3]; 100 mg/kg oral, 12 Gy γ-ray, LLC+IR+Nar vs LLC+IR
  lung injury (pathological analysis): significantly alleviated
[3]; FIG. 5 legend
  survival of mice bearing LLC lung tumor after radiotherapy: prolongs the survival
[4]
  release of inflammatory cytokine IL-1β: significantly reduces
[5]
  antioxidant capacity: very weak
